Laboratory results as given in patent US9339486B2, “Heterocyclic modulators of cannabinoid receptors” (THE CLEVELAND CLINIC FOUNDATION, priority 2008, dated 2016).

How the values were obtained:
CB1 [1] = target: T1, CB1 (Homo sapiens (Human), UniProt P21554); experiment: CB1/CB2 Functional Assay (GTPγ[35S]), CB1 membranes; assay type: biochemical
Experimental: (§1) A dose response curve was generated at eight concentrations in duplicate on CB1 and CB2 in light of reference agonists. The reference agonists for cannabinoid receptors was CP55,940. See FIGS. 1A, 1B, 2A, 2B, 3A and 3B.
(§2) Membranes (CB1, ES-110-MG or CB2, ES-111-MG) were mixed with GDP (volume:volume) and incubated for at least 15 min on ice. In parallel, GTPγ[^35S] were mixed with the beads (volume:volume) just before starting the reaction. The following reagents were successively added in the wells of an Optiplate: 50 μl of ligand, 20 μl of the membranes:GDP mix, 10 μl of assay buffer for agonist testing and 20 μl of the GTPγ[^35S]: beads mix. The plates were covered with a topseal, shaken on an orbital shaker for 2 min, and then incubated between 30 to 60 min. at room temperature. Then the plates were centrifuged for 10 min at 2000 rpm, incubated at room temperature between 1 to 4 hours and counted for 1 min with a PerkinElmer TopCount reader.

CB2 = CB2 (Homo sapiens (Human), UniProt P34972); experiment: CB1/CB2 Functional Assay (GTPγ[35S]), CB2 membranes; assay type: biochemical
CB2, sequence (P34972 whole entry): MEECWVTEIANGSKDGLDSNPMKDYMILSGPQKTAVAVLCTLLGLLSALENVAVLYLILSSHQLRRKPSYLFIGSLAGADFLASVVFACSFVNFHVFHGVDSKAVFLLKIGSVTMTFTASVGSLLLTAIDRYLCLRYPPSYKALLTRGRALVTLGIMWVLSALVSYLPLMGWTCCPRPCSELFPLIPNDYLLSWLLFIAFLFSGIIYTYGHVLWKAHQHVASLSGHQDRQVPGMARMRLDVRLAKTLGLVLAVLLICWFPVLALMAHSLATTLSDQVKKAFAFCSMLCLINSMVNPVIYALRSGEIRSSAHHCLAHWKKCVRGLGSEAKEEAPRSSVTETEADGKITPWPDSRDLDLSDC
Experimental: as §1, §2

CB1 [2] = target: T1, CB1; experiment: Radioligand competition binding, CHO-K1 membranes, [3H]SR141716A
Experimental: Mukherjee, S., et al., Species Comparison and Pharmacological Characterization of Rat and Human CB2 Cannabinoid Receptors, Eur J Pharmacol, 2004, 505:1-9. The competition binding experiment was performed in 96 well plates (Masterblock®, Catalogue number 786201, Greiner Bio-One) containing binding buffer (50 mM Tris pH 7.4, 2.5 mM EDTA, 0.5% protease free BSA, saponine 10 μg/ml), recombinant membrane extracts (2 μg protein/well) and 1 nM [^3H] SR141716A (GE Healthcare, TRK1028, 42 Ci/mmol, diluted in binding buffer). […] The sample is incubated in a final volume of 0.1 ml for 60 min at 25° C. and then filtered on GF/C Unifilter microplate (Perkin Elmer, Catalogue number 6005177) presoaked in 0.05% Brij for 2 hrs at room temperature. Filters are washed six times with 4 ml of cold binding buffer and bound [^3H] SR141716A is determined by liquid scintillation counting. IC50 were determined by non-linear regression using one site competition equation. The inhibition constants (Ki) were calculated using the Cheng Prusoff equation (Ki=IC50/(1+(L/KD)), where L=concentration of radioligand in the assay, and KD=affinity of the radioligand for the receptor).

naïve rats = experiment: Thermal paw withdrawal latency in naïve rats; assay type: in vivo, rat
Experimental: To determine sensitivity to noxious heat, rats were placed in plexiglass enclosures on a transparent glass surface maintained at 30° C. and allowed to acclimate for 30 min. A thermal testing apparatus, consisting of a heat-emitting projector lamp and an electronic timer, was used. The device was activated after the lamp is placed directly beneath the planter surface of the hindpaw. The paw withdrawal latency in response to the radiant heat was recorded by a digital timer. A cutoff of 30 s was used to prevent potential tissue damage. After the baseline was measured, three groups of naïve rats (n=10) received 1.0, 3.0, or 10 mg/kg of the compound of Example 3 i.p. Response latencies were determined twice for each rat before drug injection and at 5, 10, 15, 30, 45, 60, 90 and 120 min after IP injection. The percent maximal possible effect (% MPE) was calculated as ([postdrug latency−baseline latency]/[cutoff time (30 s)−baseline latency])×100.

[3] = test system: paclitaxel-induced neuropathy; experiment: Prevention of neuropathy induced by paclitaxel; assay type: in vivo, rat
Experimental: A mixture of saline and CREMOPHOR® ELP 10% was used as vehicle for paclitaxel. It was injected at a concentration of 1.0 mg/kg intraperitoneally to the chemotherapy-treated group of rats on 4 consecutive days for a final cumulative dose of 4 mg/kg to 18 rats.
Paw withdrawal thresholds were determined daily in both hind paws of each animal using calibrated von Frey monofilaments according to an up-down procedure. A series of von Frey filaments with exponentially incremental degrees of stiffness (0.4, 0.7, 1.2, 2.0, 3.6, 5.5, 8.5, and 15.1 g) was used to measure the 50% threshold for both hindpaw withdrawal in awake, unrestrained rats. Chaplan, S. R., Quantitative assessment of tactile allodynia in the rat paw, Journal of Neuroscience Methods, 1994, 53:55-63. Brisk paw withdrawal from the pressure of a filament gently bent against the plantar surface of the paw was defined as a positive response, and absence of withdrawal within 6 sec was considered a negative response. The series of filaments touched the hindpaw in sequential ascending or descending order of stiffness until the threshold of response was crossed (allowing about 10 sec between each increment). Each time the threshold was crossed, the direction of stimulus presentation was reversed and the procedure resumed. Four responses were collected after the first threshold detection, and the 50% withdrawal thresholds was interpolated. In cases in which the response thresholds fall outside the range of detection, 15.1 and 0.25 g were assigned for continuous negative or positive responses, respectively, to the limits of stimulation. FIG. 17 and FIG. 18 show results from these experiments and that peripheral neuropathy started to develop within a few days. FIG. 18 reflects that a plateau was reached by the 10th day.
Group 1 of rats received paclitaxel for four days, as described immediately above in subpart (A) titled “Paclitaxel-induced Neuropathy.” In group 2, a dose of 15 mg/kg of the compound of Example 3, injected intraperitoneally was administered 30 minutes prior to the administration of paclitaxel. In group 3, vehicle of the compound of Example 3 was administered 30 min prior to the administration of paclitaxel. Paw withdrawal thresholds were determined daily in both hind paws of each animal using calibrated von Frey monofilaments according to an up-down procedure as described immediately above in subpart (A) titled “Paclitaxel-induced Neuropathy.” The results are shown in FIG. 17.
FIGS. 19A and 19B show results from an experiment in which three groups of rats were administered 0.25 mL of the compound of Example 3 or the vehicle, a mixture of NMP, propylene glycol, chromophore ELP (25%, 25%, 10%) in sterile water 30 min prior to the administration of paclitaxel. Two of the three experimental groups continued to receive either the vehicle or the compound of Example 3 daily for 11 more days.

T1 sequence (P21554 whole entry): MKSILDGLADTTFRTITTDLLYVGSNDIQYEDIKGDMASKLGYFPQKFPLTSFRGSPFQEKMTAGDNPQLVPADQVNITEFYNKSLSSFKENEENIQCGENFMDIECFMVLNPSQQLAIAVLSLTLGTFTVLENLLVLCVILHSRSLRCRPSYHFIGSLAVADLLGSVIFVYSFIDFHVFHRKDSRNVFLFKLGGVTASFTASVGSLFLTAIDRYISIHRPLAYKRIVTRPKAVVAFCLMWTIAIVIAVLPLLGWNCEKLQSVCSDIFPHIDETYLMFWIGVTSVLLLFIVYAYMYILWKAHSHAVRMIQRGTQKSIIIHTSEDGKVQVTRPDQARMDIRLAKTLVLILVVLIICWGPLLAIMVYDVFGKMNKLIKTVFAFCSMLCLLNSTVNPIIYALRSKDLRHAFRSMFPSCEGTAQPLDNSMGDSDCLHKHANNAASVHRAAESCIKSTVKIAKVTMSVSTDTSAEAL

## CC1(Cc2ccccc2)COc2cc(C(=O)N3CCCCC3)ccc21 (stereo not shown) [Example 3, 3-benzyl-3-methyl-2,3-dihydrobenzofuran-6-carboxylic acid-piperidine amide]
CB1 [1]
  Compound Function: Agonist
CB1 [1]; reference agonist CP55,940
  % Activation Average: 22.85%
CB2
  Compound Function: Agonist
CB2; read-out: EC50 (nM) for GTP Binding
  EC50: 160 nM
CB2; reference agonist CP55,940
  % Activation Average: 87.2%
CB1 [2]; CHO-K1 membranes, 1 nM [3H]SR141716A, read-out: Mean Ki (nM) hCB1
  Ki: > 10000 nM
CB1 [2]; up to 10 μM
  radioactive ligand displacement at hCB1 receptors: did not demonstrate detectable radioactive ligand displacement
naïve rats; 1 mg/kg or 3 mg/kg i.p.
  nociceptive effect of a thermal stimulus applied to hind paws: did not block
naïve rats; 10 mg/kg i.p.
  nociceptive effect of a thermal stimulus applied to hind paws: short-lasting antinociceptive effect
[3]; 15 mg/kg for 4 days only
  development of paclitaxel-evoked mechano-allodynia: did not prevent but significantly prevented the severity
[3]; administered for 14 days (4 days concomitant with paclitaxel and further 10 days)
  prevention of paclitaxel-induced neuropathy, share of rats: 100%
[3]; administered for four days only
  prevention of paclitaxel-induced neuropathy: short-lived prevention
[3]; continued 15 mg/kg IP daily
  development of paclitaxel-evoked mechano-allodynia: completely prevented
